Experiments:
SMAD2 = assay: Western blot of phosphorylated SMAD2 in FD-MSCs; assay type: cell-based, human; conditions: SB pretreatment 2 days in MesenCult-ACF
Procedure: All assays were performed between 7 and 15 passages. For osteocyte differentiation, mature MSCs were grown in 24 well culture plates to 100% confluency in MesenCult-ACF and induced to differentiate in OsteoLife Complete Osteogenesis Medium (Lifeline Cell Technology) for 21 days prior to staining with Lifeline Alizarin Red Stain to visualize calcium deposition. For chondrocyte differentiation. For beige adipogenic precursor generation, cells were grown in 24 well culture plates to 90% confluence and treated with 5 uM SB413542 (Sigma) and 10 nM human IL-4 (Peprotech) for 2 days. For beige adipogenic induction, adipogenic precursors are differentiated for 3 days with adipogenic medium consisting of T3 (2 nM), insulin (170 nM), rosiglitazone (1 μM), SB413542 (5 uM), IBMX (0.5 mM), dexamethasone (5 μM) and indomethacin (125 μM) in EGM-2 medium (Lonza) supplemented with the BulletKit minus FGF2 (modified from^33). Thereafter, cells are maintained in adipogenic medium without IBMX, dexamethasone and indomethacin. The medium was changed every 3 days and adipocytes were fully differentiated by 9-12 days as determined by lipid accumulation and peak expression of UCP1. […] SWATH runs were extracted and analyzed using PeakView software and MarkerView software was utilized to find statistically relevant relationships through t test comparisons. […]

FD-MSCs = assay: Beige adipogenic precursor markers in FD-MSCs (flow cytometry, immunostaining, qPCR); assay type: cell-based, human; conditions: SB pretreatment 2 days
Procedure: All assays were performed between 7 and 15 passages. For osteocyte differentiation, mature MSCs were grown in 24 well culture plates to 100% confluency in MesenCult-ACF and induced to differentiate in OsteoLife Complete Osteogenesis Medium (Lifeline Cell Technology) for 21 days prior to staining with Lifeline Alizarin Red Stain to visualize calcium deposition. For chondrocyte differentiation. For beige adipogenic precursor generation, cells were grown in 24 well culture plates to 90% confluence and treated with 5 uM SB413542 (Sigma) and 10 nM human IL-4 (Peprotech) for 2 days. For beige adipogenic induction, adipogenic precursors are differentiated for 3 days with adipogenic medium consisting of T3 (2 nM), insulin (170 nM), rosiglitazone (1 μM), SB413542 (5 uM), IBMX (0.5 mM), dexamethasone (5 μM) and indomethacin (125 μM) in EGM-2 medium (Lonza) supplemented with the BulletKit minus FGF2 (modified from^33). Thereafter, cells are maintained in adipogenic medium without IBMX, dexamethasone and indomethacin. The medium was changed every 3 days and adipocytes were fully differentiated by 9-12 days as determined by lipid accumulation and peak expression of UCP1.
Cell Isolation, Expansion and Differentiation of Interscapular Brown Adipose Tissue Preadipocytes • 1. Prior to adipose cell isolation, warm DMEM, FBS and cell wash buffer to room temperature. • 2. In a laminar flow cabinet for cell culture, place 5 g of adipose tissue on a 100×20 mm dish. Suspend tissue in 1 mL of Adipose Tissue Dissociation Kit enzyme digest cocktail and finely mince with a razorblade. • 3. Transfer cell suspension slurry to a 5 mL polystyrene round bottom tube and add an additional 1.5 mL of enzyme digest cocktail to tube. • 4. Incubate tube at 37° C. on a rotating nutator for 30 minutes. During incubation period, briefly vortex sample for 5 s in 10-minute intervals. • 5. Transfer cells to a 15 mL tube and add 5 mL of DMEM. Filter cell suspension through a 100 μm strainer into a new 15 mL tube and centrifuge at 300 g for 5 minutes to form a pellet. • 6. Remove supernatant and leave behind […] of DMEM. […]

## NC(=O)c1ccc(-c2nc(-c3ccc4c(c3)OCO4)c(-c3ccccn3)[nH]2)cc1 [SB, SB431542]
SMAD2
  constitutive phosphorylation of SMAD2: inhibited
FD-MSCs
  cell surface expression of PDGFRα and MSCA1: increased
  nuclear accumulation of EBF2: significantly increased

From patent US12312599B2, “Methods, compositions, and kits for producing beige adipocytes and treating metabolic disorders” (MaineHealth, priority 2018, dated 2025)
